Counter-ions that a name gives are not always drawn. Like-named read-outs stand apart in the source and are kept apart here.

Data on 17 compounds can be found in patent publication US8507538B2, “Selective heterocyclic sphingosine 1 phosphate receptor modulators” (Receptos, Inc., priority 2009, dated 2013).

For assay [1], the target named is T1, S1P3 (Homo sapiens, UniProt Q99500).
T1 construct: host or cells: NFAT-bla HEK293T co-expressing Gα15
Description: Specificity over other S1P receptors: S1P3-Gα15 NFAT-bla HEK293T. The class given is cell-based. The settings on record: without Forskolin; read-out: S1P3 agonist value (EC50). As for the experimental part: (§1) Cells were seeded into 384-well black wall/clear bottom plates at 10^4 cells/well/19.5 μl assay media (DMEM-phenol free, 0.5% charcoal/dextran stripped serum, 2 mM glutamine, 0.1 mM NEAA, 1 mM Na-Pyruvate, 25 mM Hepes) and incubated for 18 hrs at 37° C. in 5% CO2. Dose response curves (10-point) were generated in 10 mM Hepes, 0.1% Pluronic F127, in the presence of Forskolin. Cells were treated with 0.5 μl compound in the presence of 2 μM Forskolin for 4 hrs at 37° C. The FRET-based β-lactamase fluorescent substrate (LiveBLAzer™ FRET B/G Loading Kit CC4-AM; Invitrogen) was prepared according to manufacturer's directions, and incubated with cells for 2 hrs at room temperature. Plates were read at Ex:410/Em:458 and Ex:410/Em:522, and the response ratio determined. Data was analyzed by non-linear regression to determine the EC50 for inhibition of Forskolin induced cAMP.
(§2) To assess compound specificity on other S1P receptors the following cell lines were used: S1P2 CRE-bla CHOK1, S1P3-Gα15 NFAT-bla HEK293T (Invitrogen), S1P4-bla TANGO U2OS (Invitrogen), S1P5-bla TANGO U2OS (Invitrogen). The same assay set up for S1P1 was used but without Forskolin. S1P4 and S1P5 assays were performed in FreeStyle Expression medium (Invitrogen). S1P5 cells were incubated for 48 hrs in prior to treatment with compound.

The target in assay [2] is S1P1/EDG1 (Homo sapiens, UniProt P21453). As to the kind of experiment: S1P1 CRE-bla CHOK1 reporter assay (inhibition of Forskolin induced cAMP). It counts as cell-based. In a few lines: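 Stable CRE-bla CHO-K1 clone expressing human S1P1, serum-starved (0.5% stripped serum) 18 h, then treated with compound (10-point curve) plus 2 μM forskolin for 4 h at 37 °C. β-lactamase FRET ratio (458/522 nm) read after 2 h substrate loading; EC50 for inhibition of forskolin-induced cAMP by non-linear regression.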

Assay [3] deals with T2, S1P5 (Homo sapiens, UniProt Q9H228).
T2 construct: Tango fusion (own knowledge: TEV protease site + GAL4-VP16 transcription factor fused to the receptor's C-terminus); host or cells: Tango bla U2OS
As to the kind of experiment: Specificity over other S1P receptors: S1P5-bla TANGO U2OS. The class given is cell-based. The settings on record: without Forskolin, FreeStyle Expression medium; read-out: S1P5 agonist value (EC50). As for the experimental part:
as §1, §2

The target of assay [4] is T3, S1P4 (Homo sapiens, UniProt O95977).
T3 construct: Tango fusion (own knowledge: TEV protease site + GAL4-VP16 transcription factor fused to the receptor's C-terminus); host or cells: Tango bla U2OS
T3 sequence (O95977 1-384): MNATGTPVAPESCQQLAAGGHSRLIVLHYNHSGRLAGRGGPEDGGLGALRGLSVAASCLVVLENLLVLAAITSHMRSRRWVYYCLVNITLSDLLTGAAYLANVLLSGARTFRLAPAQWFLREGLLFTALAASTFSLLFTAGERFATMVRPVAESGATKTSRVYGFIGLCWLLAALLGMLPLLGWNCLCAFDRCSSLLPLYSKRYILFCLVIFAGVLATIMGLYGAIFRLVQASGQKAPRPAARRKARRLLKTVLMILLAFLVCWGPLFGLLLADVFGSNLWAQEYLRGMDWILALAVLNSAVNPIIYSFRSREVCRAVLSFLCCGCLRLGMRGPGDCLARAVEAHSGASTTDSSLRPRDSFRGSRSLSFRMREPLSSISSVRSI
As to the kind of experiment: Specificity over other S1P receptors: S1P4-bla TANGO U2OS. The class given is cell-based. The settings on record: without Forskolin, FreeStyle Expression medium; read-out: S1P4 agonist value (EC50). As for the experimental part: as §1, §2

Assay [5] addresses T4, S1P2 (Homo sapiens, UniProt O95136).
T4 construct: expressed in transfected cells; host or cells: CRE-bla CHOK1
As to the kind of experiment: Specificity over other S1P receptors: S1P2 CRE-bla CHOK1. The settings on record: without Forskolin; read-out: S1P2 agonist value (EC50). The class given is cell-based. As for the experimental part: as §1, §2

In assay [6] the test system is CD4 or CD8 positive T cells. As to the kind of experiment: Lymphopenia in rats. The class given is in vivo. The conditions noted are these: rat, 24 h after a 0.2 mg/kg single dose; for inhibition in vivo at 0.2 mg/kg: CD8 positive, po. Here is the method:
In rats: Female rats (Simonsen Laboratories, Gilroy Calif.) were housed in an ALAAC accredited facility and the research was approved by the facilities Institutional Animal Care and Use Committee (IACUC). The animals were acclimated to the laboratory for at least 5 days prior to initiation of experiments. Rats (n=3/compound/time-point) were dosed by oral gavage with 1 mg/kg compound formulated in a vehicle consisting of 5% DMSO/5% Tween 20 and 90% 0.1N HCL. Control rats were dosed PO with the vehicle. Whole blood was collected from isoflurane anesthetized rats via the retro-orbital sinus and terminal samples were collected by cardiac puncture into EDTA. Whole blood was incubated with mouse anti-rat CD32 (BD #550271), PE-mouse anti-rat CD45R/B220 (BD #554881), PECy5-mouse anti-rat CD4 (BD #554839), and APC-mouse anti-rat CD8a (eBioscience #17-0084) for 30 minutes on ice. Red blood cells were lysed using BD Pharm. Lyse Lysing buffer (#555899) and white blood cells were analyzed with a BD FACSArray. Lymphopenia was expressed as the % of white blood cells that were CD4 or CD8 positive T cells. The overall lymphopenia response over 24 h was estimated by calculating the area under the effect curve (AUEC) using the linear trapezoidal rule. In some experiments, total lymphocyte counts were determined using a standard impediance based veterinary hematology analyzer (IDEXX Preclinical Research Services, Sacramento, Calif.).
The percentage of lymphopenia at 24 h after a 0.2 mg/kg single dose regiment is reported. […] N/A is not available.

In assay [7] the test system is CD4 or CD8 positive T cells. As to the kind of experiment: Lymphopenia in rats. The settings on record: rat, at 24 h after a 3-5 day dosing regimen. The class given is in vivo.
Where [8] appears, read: Table 3, read-out: S1P1 agonist value (EC50).
Setting [9] is: agonist activity range, Table 2, read-out: S1P1 ACTIVITY

T2 sequence (Q9H228 whole entry, the tested form may be a part): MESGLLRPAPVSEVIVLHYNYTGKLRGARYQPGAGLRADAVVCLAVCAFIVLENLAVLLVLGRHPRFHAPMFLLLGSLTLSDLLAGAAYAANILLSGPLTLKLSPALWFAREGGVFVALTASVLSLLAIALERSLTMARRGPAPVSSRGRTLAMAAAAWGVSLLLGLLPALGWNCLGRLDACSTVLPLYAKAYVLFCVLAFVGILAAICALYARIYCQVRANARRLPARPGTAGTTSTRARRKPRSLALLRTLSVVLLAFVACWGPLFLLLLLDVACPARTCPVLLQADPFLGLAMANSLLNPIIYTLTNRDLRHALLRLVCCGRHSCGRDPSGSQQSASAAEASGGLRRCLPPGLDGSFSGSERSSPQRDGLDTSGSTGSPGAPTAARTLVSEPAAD
S1P1/EDG1, sequence (P21453 whole entry): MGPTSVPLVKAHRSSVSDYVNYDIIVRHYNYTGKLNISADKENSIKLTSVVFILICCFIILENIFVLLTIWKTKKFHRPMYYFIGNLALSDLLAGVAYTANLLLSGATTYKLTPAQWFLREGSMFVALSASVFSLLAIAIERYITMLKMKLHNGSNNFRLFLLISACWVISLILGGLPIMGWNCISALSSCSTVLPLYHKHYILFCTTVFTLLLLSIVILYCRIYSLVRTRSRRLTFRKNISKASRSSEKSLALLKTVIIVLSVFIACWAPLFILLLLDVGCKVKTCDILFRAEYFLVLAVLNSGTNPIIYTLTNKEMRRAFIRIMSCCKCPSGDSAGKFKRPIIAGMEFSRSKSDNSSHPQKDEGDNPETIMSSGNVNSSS
T1 sequence (Q99500 whole entry): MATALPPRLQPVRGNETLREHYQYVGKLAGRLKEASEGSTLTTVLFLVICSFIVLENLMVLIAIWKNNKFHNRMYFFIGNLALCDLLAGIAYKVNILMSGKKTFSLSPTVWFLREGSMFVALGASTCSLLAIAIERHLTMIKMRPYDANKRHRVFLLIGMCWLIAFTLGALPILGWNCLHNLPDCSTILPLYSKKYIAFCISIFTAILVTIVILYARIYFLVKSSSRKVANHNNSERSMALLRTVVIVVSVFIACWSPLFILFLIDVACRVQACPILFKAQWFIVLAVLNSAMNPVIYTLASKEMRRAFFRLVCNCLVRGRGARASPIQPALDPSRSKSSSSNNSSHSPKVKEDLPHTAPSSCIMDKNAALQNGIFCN
T4 sequence (O95136 whole entry, species assumed): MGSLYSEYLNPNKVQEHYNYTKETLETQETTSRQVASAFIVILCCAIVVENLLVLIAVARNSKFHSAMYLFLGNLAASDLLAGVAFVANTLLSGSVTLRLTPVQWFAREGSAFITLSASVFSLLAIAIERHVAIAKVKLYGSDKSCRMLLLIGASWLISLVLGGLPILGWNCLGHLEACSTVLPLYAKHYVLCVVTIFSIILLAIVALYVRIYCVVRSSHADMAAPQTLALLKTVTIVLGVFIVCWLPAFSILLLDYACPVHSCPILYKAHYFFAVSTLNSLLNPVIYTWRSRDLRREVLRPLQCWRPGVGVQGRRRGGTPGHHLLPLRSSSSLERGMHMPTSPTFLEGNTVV

In general, inhibition in vivo refers to the change of the read-out against control, counted positive when it falls. The low end stands for little suppression, the high end for strong suppression. Take `CC(C)Oc1ccc(-c2nnc(-c3cccc4c3CC[C@@H]4NS(N)(=O)=O)s2)cc1C#N` [Compound 47, (S)-N-(4-(5-(3-cyano-4-isopropoxyphenyl)-1,3,4-thiadiazol-2-yl)-2,3-dihydro-1H-inden-1-yl)sulfamide]: the EC50 in assay [1] is more than 10000 nM; in assay [2] (setting [8]), 0.03 nM; in assay [2] (setting [9]), less than 0.05 nM; in assay [3], 22 nM; in assay [4], more than 10000 nM; in assay [5], more than 10000 nM. This compound also came in with an inhibition in vivo at 0.2 mg/kg in assay [6] of 17%.

For the compound “(R)-N-(4-(2-(3-cyano-4-isopropoxyphenyl)thiazol-5-yl)-2,3-dihydro-1H-inden-1-yl)sulfamide [Compound 166]”, the “ED50, estimated dose needed to produce 50% lymphopenia” value in assay [7] was 0.07 mg/kg. For the same compound, in assay [6], the “% Lymphopenia after 24 h (0.2 mg/kg)” value is reported as 47%.

For “(R)-2-(N-(4-(5-(3-cyano-4-isopropoxyphenyl)-1,3,4-thiadiazol-2-yl)-2,3-dihydro-1H-inden-1-yl)sulfamoyl)-N,N-dimethylacetamide [Compound 43]”, the EC50 in assay [2] (setting [8]) is 0.07 nM; in assay [3] it was 444 nM. Moreover, the “% Lymphopenia after 24 h (0.2 mg/kg)” value in assay [6] was found to be 40%.

As usually defined, the ED50 is the dose at which the effect has come halfway, by size or by number of responders. As for `CC(C)Oc1ccc(-c2ncc(-c3cccc4c3CC[C@H]4NC(=O)N3CCOCC3)s2)cc1C#N` [Compound 186, (R)-N-(4-(2-(3-cyano-4-isopropoxyphenyl)thiazol-5-yl)-2,3-dihydro-1H-inden-1-yl)morpholine-4-carboxamide], the figures for the EC50 in assay [1], in assay [2] (setting [8]) and in assay [3] were more than 10000 nM, 0.41 nM and 126 nM, respectively. The ED50 in assay [7] (CD8 positive, read-out: ED50, estimated dose needed to produce 50% lymphopenia) is 0.2 mg/kg. Moreover, in assay [6], the inhibition in vivo at 0.2 mg/kg was determined as 25%.

Turning to “(R)-N-(4-(5-(3-cyano-4-isopropoxyphenyl)-1,3,4-thiadiazol-2-yl)-2,3-dihydro-1H-inden-1-yl)-2-hydroxyethanesulfonamide [Compound 46]”, the EC50 in assay [2] (setting [8]) came to 0.25 nM; in assay [3] it was 194 nM; in assay [4], 2170 nM. Moreover, in assay [6], the “% Lymphopenia after 24 h (0.2 mg/kg)” value came to 39%.

On to “(R)-N-((R)-4-(5-(3-cyano-4-isopropoxyphenyl)-1,3,4-thiadiazol-2-yl)-2,3-dihydro-1H-inden-1-yl)-3-(dimethylamino)pyrrolidine-1-carboxamide [Compound 56]”, for which the “% Lymphopenia after 24 h (0.2 mg/kg)” value in assay [6] stood at 52%.

For “(R)-N-(4-(2-(3-cyano-4-isopropoxyphenyl)thiazol-5-yl)-2,3-dihydro-1H-inden-1-yl)pyrrolidine-1-carboxamide [Compound 172]”, in assay [7], the “ED50, estimated dose needed to produce 50% lymphopenia” value is on record as 0.20 mg/kg. The “% Lymphopenia after 24 h (0.2 mg/kg)” value in assay [6] is recorded as 22%.

Regarding `CC(C)Oc1ccc(-c2ncc(-c3cccc4c3CC[C@@H]4NC(=O)N3CC[C@H](O)C3)s2)cc1C#N` [Compound 177], the EC50 in assay [2] (setting [9]) was 0.05 to 0.5 nM.

As to `CC(C)Oc1ccc(-c2ncc(-c3cccc4c3CC[C@@H]4NC(=O)N3CC[C@@H](N(C)C)C3)s2)cc1C#N` [Compound 183], the EC50 in assay [2] (setting [9]) is 0.5 to 5 nM.

`CC(C)Oc1ccc(-c2ncc(-c3cccc4c3CC[C@@H]4NS(=O)(=O)CCN3CCC3)s2)cc1C#N` [Compound 128]: the EC50 in assay [2] (setting [9]) was more than 5 nM.

As to `CC(C)Oc1ccc(-c2nnc(-c3cccc4c3CCC4N)s2)cc1C#N` (stereo in doubt) [Compound 5, (R)-5-(5-(1-amino-2,3-dihydro-1H-inden-4-yl)-1,3,4-thiadiazol-2-yl) -2 isopropoxybenzonitrile hydrochloride], the EC50 in assay [2] (setting [9]) was 0.5 to 5 nM.

For the compound `CC(C)Oc1ccc(-c2ncc(-c3cccc4c3CC[C@@H]4NCC(=O)N3CCNCC3)s2)cc1C#N` [Compound 108], the EC50 in assay [2] (setting [9]) was more than 5 nM.

For the compound `CC(C)Oc1ccc(-c2ncc(-c3cccc4c3CC[C@@H]4NC(=O)N3CCC(CO)CC3)s2)cc1C#N` [Compound 194], the EC50 in assay [2] (setting [9]) lay within 0.5 to 5 nM.

For `CC(C)Oc1ccc(-c2ncc(-c3cccc4c3CC[C@@H]4NS(=O)(=O)CCO)s2)cc1C#N` [Compound 165, (S)-N-(4-(2-(3-cyano-4-isopropoxyphenyl)thiazol-5-yl)-2,3-dihydro-1H-inden-1-yl)-2-hydroxyethanesulfonamide], the EC50 in assay [2] (setting [9]) is 0.5 to 5 nM.

For the compound `CCOc1ccc(-c2nnc(-c3cccc4c3CC[C@@H]4N)s2)cc1OCC` [Compound 6], in assay [2] (setting [9]), the EC50 fell in the range of 0.5 to 5 nM.

With `CC(C)Oc1ccc(-c2nnc(-c3cccc4c3CCC4NCc3ncc[nH]3)s2)cc1C#N` (stereo in doubt) [Compound 29, (R)-5-(5-(1-(((1H-imidazol-2-yl)methyl)amino)-2,3-dihydro-1H-inden-4-yl)-1,3,4-thiadiazol-2-yl) -2-isopropoxybenzonitrile], in assay [2] (setting [9]), the EC50 lay in the range of 0.05 to 0.5 nM.

Consider `CC(C)Oc1ccc(-c2nnc(-c3cccc4c3CC[C@@H]4NCCO)s2)cc1C#N` [Compound 18, (S)-5-(5-(1-((2-hydroxyethyl)amino)-2,3 dihydro-1H-inden-4-yl)-1,3,4-thiadiazol-2-yl)-2-isopropoxy-benzonitrile], for which the EC50 in assay [2] (setting [9]) is 0.5 to 5 nM.
